Measured values taken from patent publication US20150315188A1, “COMPOUNDS AND METHODS FOR TREATMENT OF HYPERTENSION” (MEDIVATION TECHNOLOGIES, INC., priority 2012, published 2015).

What was measured:
Design in all cases: purchased Milipore (Millipore)
[1] = molecular target: T1, Human adrenergic α2A receptor (Homo sapiens, UniProt P08913); assay: Radioligand binding, adrenergic α2A (Protocol Group B); conditions: Protocol Group B; for Percentage inhibition of ligand binding, Adrenergic α2A (0.1 μM) / inhibition at 0.1 µM: 0.1 μM compound; for Percentage inhibition of ligand binding, Adrenergic α2A (0.3 μM) / inhibition at 0.3 µM: 0.3 μM compound; for inhibition at 0.1 µM: read-out: Percentage inhibition of ligand binding, Adrenergic α2A (0.1 μM); for inhibition at 0.3 µM: read-out: Percentage inhibition of ligand binding, Adrenergic α2A (0.3 μM)
T1 sequence (P08913 1-465): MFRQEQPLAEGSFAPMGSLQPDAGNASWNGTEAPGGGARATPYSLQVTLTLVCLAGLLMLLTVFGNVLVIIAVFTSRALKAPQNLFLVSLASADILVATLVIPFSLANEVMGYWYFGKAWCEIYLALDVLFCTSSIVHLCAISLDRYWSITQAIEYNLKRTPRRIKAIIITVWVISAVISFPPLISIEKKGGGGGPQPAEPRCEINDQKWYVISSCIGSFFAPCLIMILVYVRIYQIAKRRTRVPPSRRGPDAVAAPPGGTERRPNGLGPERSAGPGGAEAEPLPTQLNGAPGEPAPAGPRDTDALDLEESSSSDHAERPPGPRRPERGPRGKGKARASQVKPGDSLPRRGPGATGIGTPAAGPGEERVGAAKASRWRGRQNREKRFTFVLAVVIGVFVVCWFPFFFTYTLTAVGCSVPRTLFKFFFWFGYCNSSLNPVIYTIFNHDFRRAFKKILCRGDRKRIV
Outline: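 Compounds (1% DMSO vehicle, various concentrations) competed against 2 nM [^3H]MK-912 on recombinant receptor membranes for 60 min at 25° C, Tris-HCl pH 7.4 buffer with Mg2+, Ca2+, BSA. Bound radioligand filtered and counted; 10 μM rauwolscine set nonspecific binding. Values: percent inhibition of specific binding or estimated Ki.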

[2] = molecular target: T2, Human adrenergic α1B receptor (Homo sapiens, UniProt P35368); assay: Radioligand binding, adrenergic α1B (Protocol Group B); conditions: Protocol Group B; for Percentage inhibition of ligand binding, Adrenergic α1B (0.1 μM) / inhibition at 0.1 µM: 0.1 μM compound; for Percentage inhibition of ligand binding, Adrenergic α1B (0.3 μM) / inhibition at 0.3 µM: 0.3 μM compound; for inhibition at 0.1 µM: read-out: Percentage inhibition of ligand binding, Adrenergic α1B (0.1 μM); for inhibition at 0.3 µM: read-out: Percentage inhibition of ligand binding, Adrenergic α1B (0.3 μM)
T2 sequence (P35368 1-520): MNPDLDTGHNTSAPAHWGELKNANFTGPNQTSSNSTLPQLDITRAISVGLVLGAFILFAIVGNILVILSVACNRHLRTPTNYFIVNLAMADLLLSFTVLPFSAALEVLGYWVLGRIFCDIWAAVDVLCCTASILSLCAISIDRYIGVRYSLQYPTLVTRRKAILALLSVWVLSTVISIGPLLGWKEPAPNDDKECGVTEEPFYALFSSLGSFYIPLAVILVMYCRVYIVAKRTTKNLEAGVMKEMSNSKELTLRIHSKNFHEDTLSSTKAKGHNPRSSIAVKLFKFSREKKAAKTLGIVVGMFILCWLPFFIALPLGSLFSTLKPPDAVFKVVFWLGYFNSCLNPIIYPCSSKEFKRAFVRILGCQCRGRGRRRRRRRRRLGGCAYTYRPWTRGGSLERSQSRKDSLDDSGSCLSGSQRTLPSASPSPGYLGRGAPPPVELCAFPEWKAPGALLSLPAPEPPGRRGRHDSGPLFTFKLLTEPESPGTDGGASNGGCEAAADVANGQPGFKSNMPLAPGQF
Outline: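 Values are percent inhibition of specific [3H]prazosin (0.3 nM) binding or estimated Ki, from filtration counting. Human α1B recombinant membranes, Tris-HCl pH 7.4 buffer with MgCl2 and EDTA, 60 min at 25 °C, 1% DMSO vehicle; 10 μM prazosin defined nonspecific binding.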

[3] = molecular target: T3, Human adrenergic α2B receptor (Homo sapiens, UniProt P18089); assay: Radioligand binding, adrenergic α2B (Protocol Group B); conditions: Protocol Group B; for Percentage inhibition of ligand binding, Adrenergic α2B (10 nM) / inhibition at 0.01 µM: 10 nM compound; for Percentage inhibition of ligand binding, Adrenergic α2B (10 nM): 0.01 µM; for Percentage inhibition of ligand binding, Adrenergic α2B (30 nM) / inhibition at 0.03 µM: 30 nM compound; for Percentage inhibition of ligand binding, Adrenergic α2B (30 nM): 0.03 µM; for inhibition at 0.01 µM: read-out: Percentage inhibition of ligand binding, Adrenergic α2B (10 nM); for inhibition at 0.03 µM: read-out: Percentage inhibition of ligand binding, Adrenergic α2B (30 nM); for inhibition at 0.1 µM / Percentage inhibition of ligand binding, Adrenergic α2B (0.1 μM): 0.1 μM compound; for inhibition at 0.1 µM: read-out: Percentage inhibition of ligand binding, Adrenergic α2B (0.1 μM)
T3 sequence (P18089 1-450): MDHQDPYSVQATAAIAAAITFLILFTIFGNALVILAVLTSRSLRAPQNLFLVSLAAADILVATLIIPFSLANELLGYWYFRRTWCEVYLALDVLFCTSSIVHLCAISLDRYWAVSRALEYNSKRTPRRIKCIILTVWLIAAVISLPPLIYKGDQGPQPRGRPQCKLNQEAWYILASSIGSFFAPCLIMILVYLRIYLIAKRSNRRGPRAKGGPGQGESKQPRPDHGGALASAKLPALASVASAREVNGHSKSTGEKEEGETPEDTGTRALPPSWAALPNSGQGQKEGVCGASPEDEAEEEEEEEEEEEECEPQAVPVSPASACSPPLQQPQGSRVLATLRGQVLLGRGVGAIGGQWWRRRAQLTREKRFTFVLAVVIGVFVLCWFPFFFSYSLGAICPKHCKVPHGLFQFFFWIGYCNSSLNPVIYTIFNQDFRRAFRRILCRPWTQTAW
Outline: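 Compounds at various concentrations in 1% DMSO were tested on recombinant membranes in Tris-HCl pH 7.4 buffer containing MgCl2, CaCl2 and 0.2% BSA.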

Cc1ccc2c(c1)c1c(n2CC(C)(O)c2cnc3ccccc3c2)CCN(C)C1 (single isomer, unassigned) [32b]
Percentage inhibition of ligand binding, Adrenergic α2A (0.1 μM) [1]: −5%
Percentage inhibition of ligand binding, Adrenergic α2A (0.3 μM) [1]: 9%
Percentage inhibition of ligand binding, Adrenergic α1B (0.1 μM) [2]: −1%
Percentage inhibition of ligand binding, Adrenergic α1B (0.3 μM) [2]: 13%
Percentage inhibition of ligand binding, Adrenergic α2B (10 nM) [3]: 0%
Percentage inhibition of ligand binding, Adrenergic α2B (30 nM) [3]: 14%

Cc1cc(F)cc2c3c(n(CC(O)c4ccncc4)c12)CCN1CCCC31 (single isomer, unassigned) [136c]
Percentage inhibition of ligand binding, Adrenergic α2A (0.1 μM) [1]: 3%
Percentage inhibition of ligand binding, Adrenergic α1B (0.1 μM) ([2]; 0.1 µM): 0%
Percentage inhibition of ligand binding, Adrenergic α2B (30 nM) [3]: 9%

OCc1ccc2c(c1)c1c(n2CC(O)c2ccncc2)CCN2CCCC12 (centres unmarked) [compound 29]
inhibition at 0.1 µM [1]: 20%
inhibition at 0.3 µM [1]: 49%
inhibition at 0.1 µM [2]: 15%
inhibition at 0.3 µM [2]: 46%
inhibition at 0.01 µM [3]: 31%
inhibition at 0.03 µM [3]: 66%
inhibition at 0.1 µM [3]: 80%

Cc1ccc2c(c1)c1c(n2CC(OCC2CCC2)c2ccncc2)CCN2CCCC12 (single isomer, unassigned) [138c]
Percentage inhibition of ligand binding, Adrenergic α2A (0.1 μM) [1]: 0%
Percentage inhibition of ligand binding, Adrenergic α1B (0.1 μM) ([2]; 0.1 µM): 4%
Percentage inhibition of ligand binding, Adrenergic α2B (30 nM) [3]: −9%

Cc1ccc2c(c1)c1c(n2CC(OC(N)=O)c2ccncc2)CCN(C)C1 (single isomer, unassigned) [8a]
Percentage inhibition of ligand binding, Adrenergic α2A (0.1 μM) [1]: 20%
Percentage inhibition of ligand binding, Adrenergic α2A (0.3 μM) [1]: 14%
Percentage inhibition of ligand binding, Adrenergic α1B (0.1 μM) ([2]; 0.1 µM): 18%
Percentage inhibition of ligand binding, Adrenergic α1B (0.3 μM) [2]: 22%
Percentage inhibition of ligand binding, Adrenergic α2B (10 nM) [3]: 12%
Percentage inhibition of ligand binding, Adrenergic α2B (30 nM) [3]: 21%
Percentage inhibition of ligand binding, Adrenergic α2B (0.1 μM) [3]: 48%

Cc1ccc2c(c1)c1c(n2CC(C)(O)c2cncc(F)c2)CCN(C)C1 (single isomer, unassigned) [46a]
Percentage inhibition of ligand binding, Adrenergic α2A (0.1 μM) [1]: 20%
Percentage inhibition of ligand binding, Adrenergic α2A (0.3 μM) [1]: 35%
Percentage inhibition of ligand binding, Adrenergic α1B (0.1 μM) ([2]; 0.1 µM): 6%
Percentage inhibition of ligand binding, Adrenergic α1B (0.3 μM) [2]: 27%
Percentage inhibition of ligand binding, Adrenergic α2B (10 nM) [3]: 33%
Percentage inhibition of ligand binding, Adrenergic α2B (30 nM) [3]: 60%
Percentage inhibition of ligand binding, Adrenergic α2B (0.1 μM) [3]: 82%

CC(O)(Cn1c2c(c3cc(Cl)cc(F)c31)CN1CCCC1C2)c1cccnc1 (single isomer, unassigned) [63d]
Percentage inhibition of ligand binding, Adrenergic α2A (0.1 μM) [1]: −13%
Percentage inhibition of ligand binding, Adrenergic α2A (0.3 μM) [1]: −12%
Percentage inhibition of ligand binding, Adrenergic α1B (0.1 μM) ([2]; 0.1 µM): −5%
Percentage inhibition of ligand binding, Adrenergic α1B (0.3 μM) [2]: −4%
Percentage inhibition of ligand binding, Adrenergic α2B (10 nM) [3]: −10%
Percentage inhibition of ligand binding, Adrenergic α2B (30 nM) [3]: 5%

CN1CCc2c(c3cc(CCO)ccc3n2CC(C)(O)c2cccnc2)C1 (single isomer, unassigned) [139a]
Percentage inhibition of ligand binding, Adrenergic α2A (0.1 μM) [1]: 7%
Percentage inhibition of ligand binding, Adrenergic α1B (0.1 μM) ([2]; 0.1 µM): 9%
Percentage inhibition of ligand binding, Adrenergic α2B (30 nM) [3]: 31%

Cc1ccc2c(c1)c1c(n2CC(OC(C)C)c2ccncc2)CCN(C)C1 (centres unmarked) [compound 49, 5-(2-isopropoxy-2-(pyridin-4-yl)ethyl)-2,8-dimethyl-2,3,4,5-tetrahydro-1H-pyrido[4,3-b]indole]
inhibition at 0.1 µM [1]: 28%
inhibition at 0.3 µM [1]: 53%
inhibition at 0.1 µM [2]: 9%
inhibition at 0.3 µM [2]: 40%
inhibition at 0.01 µM [3]: 50%
inhibition at 0.03 µM [3]: 74%
inhibition at 0.1 µM [3]: 91%

Cc1cc(F)c2c(c1)c1c(n2CC(C)(O)c2ccncc2)CCN2CCCC12 (single isomer, unassigned) [81c]
Percentage inhibition of ligand binding, Adrenergic α2A (0.1 μM) [1]: 3%
inhibition at 0.3 µM [1]: 8%
Percentage inhibition of ligand binding, Adrenergic α1B (0.1 μM) ([2]; 0.1 µM): 2%
inhibition at 0.3 µM [2]: 11%
Percentage inhibition of ligand binding, Adrenergic α2B (10 nM) [3]: −2%
Percentage inhibition of ligand binding, Adrenergic α2B (30 nM) [3]: 0%
inhibition at 0.1 µM [3]: 17%

CC(O)(Cn1c2c(c3cc(F)ccc31)C1CCCN1CC2)c1ccncc1 (single isomer, unassigned) [31d]
Percentage inhibition of ligand binding, Adrenergic α2A (0.1 μM) [1]: −11%
Percentage inhibition of ligand binding, Adrenergic α2A (0.3 μM) [1]: 6%
Percentage inhibition of ligand binding, Adrenergic α1B (0.1 μM) ([2]; 0.1 µM): 0%
Percentage inhibition of ligand binding, Adrenergic α1B (0.3 μM) [2]: 11%
Percentage inhibition of ligand binding, Adrenergic α2B (10 nM) [3]: 4%
Percentage inhibition of ligand binding, Adrenergic α2B (30 nM) [3]: −11%
Percentage inhibition of ligand binding, Adrenergic α2B (0.1 μM) [3]: 17%

Cc1ccc2c(c1)c1c(n2CC(O)c2ccncc2)CNC2CCCC12 (single isomer, unassigned) [34d]
Percentage inhibition of ligand binding, Adrenergic α2A (0.1 μM) [1]: −2%
Percentage inhibition of ligand binding, Adrenergic α2A (0.3 μM) [1]: −1%
Percentage inhibition of ligand binding, Adrenergic α1B (0.1 μM) ([2]; 0.1 µM): 6%
Percentage inhibition of ligand binding, Adrenergic α1B (0.3 μM) [2]: 22%
Percentage inhibition of ligand binding, Adrenergic α2B (10 nM) [3]: 14%
Percentage inhibition of ligand binding, Adrenergic α2B (30 nM) [3]: 2%
Percentage inhibition of ligand binding, Adrenergic α2B (0.1 μM) [3]: 25%

Cc1ccc2c(c1)c1c(n2CC(O)c2cccnc2)CC2CCCN2C1 (single isomer, unassigned) [27a]
Percentage inhibition of ligand binding, Adrenergic α2A (0.1 μM) [1]: 3%
inhibition at 0.3 µM [1]: 20%
Percentage inhibition of ligand binding, Adrenergic α1B (0.1 μM) ([2]; 0.1 µM): 0%
Percentage inhibition of ligand binding, Adrenergic α1B (0.3 μM) [2]: 15%
Percentage inhibition of ligand binding, Adrenergic α2B (10 nM) [3]: 6%
Percentage inhibition of ligand binding, Adrenergic α2B (30 nM) [3]: 10%
Percentage inhibition of ligand binding, Adrenergic α2B (0.1 μM) [3]: 33%
